We go through one molecule from patent publication US20120190752A1, “EXO-S-MECAMYLAMINE METHOD, USE, AND COMPOUND FOR TREATMENT” (Targacept Inc., priority 2009, published 2012).

In the assay the test system is subjects with major depressive disorder (MDD) who were inadequate responders to citalopram. The assay can be described thus: CGI-SI (Clinical Global Impression-Severity of Illness), Phase 2b add-on trial. Type of assay: in vivo, human. An excerpt:
The Clinical Global Impression rating scales are commonly used measures of symptom severity, treatment response and the efficacy of treatments in treatment studies of patients with mental disorders (Guy, W., 1976). The Clinical Global Impression—Severity scale (CGI-S) is a 7-point scale that requires the clinician to rate the severity of the patient's illness at the time of assessment, relative to the clinician's past experience with patients who have the same diagnosis. Considering total clinical experience, a patient is assessed on severity of mental illness at the time of rating. In more detail, a multi-center double-blind, randomized, placebo-controlled, parallel group, flexible dose titration study of TC-5214 as adjunctive therapy in subjects with major depressive disorder (MDD) who were inadequate responders to citalopram was conducted in centers in the US and India. The study consisted of a screening period, baseline/washout period, open-label phase, double-blind phase, and a follow-up visit. Subject participation in the study could continue for up to 16 weeks of treatment. Following a washout period of up to 28 days for other antidepressants, subjects with MDD and a MADRS total score >/=28 and a Clinical Global Impression-Severity (CGI-S) score >/=4 were enrolled on Day 1 into an open-label citalopram-only phase of the study. This phase lasted 8 weeks, with citalopram (CIT) dose increased from a once-daily dose of 20 mg (Day 1 through Week 4) to 40 mg (Week 4 through Week 8). A total of 579 subjects entered the open-label citalopram phase. At Week 8, subjects who tolerated 40 mg CIT, but whose MADRS score was reduced <50% from baseline and no lower than 17, and CGI-S≧4, were considered inadequate responders. These subjects (n=270) were randomized in a double-blind fashion to receive either placebo or TC-5214-23 as add-on therapy to continued CIT. The double-blind phase of the study also lasted 8 weeks (Week 8 to Week 16). Study drug, TC-5214-23 or placebo, was started at 2 mg daily (1 mg twice per day [BID] dosing), added on to continuing CIT (40 mg PO qd). After 2 weeks of treatment, the dose of TC-5214 could be increased to 4 mg (2 mg BID) or continued unchanged, with up-titration based upon good tolerability and inadequate therapeutic response. After a further 2 weeks, the dose of TC-5214 could be increased again to 8 mg (4 mg BID) if judged appropriate by the investigator, based upon good tolerability and inadequate therapeutic response. At any time during the double-blind phase of the study, placebo or TC-5214-23 could be reduced to the previous dose level following the emergence of unacceptable adverse events (AEs). […] At this follow-up, any signs or symptoms of relapse were evaluated. If a subject was prematurely discontinued from the study between Week 8 and Week 16 for any reason, the investigator was to make every effort to perform all evaluations as per protocol, assuming the subject had reached the end of the double-blind add-on treatment phase. These evaluations were to be made as soon as possible and within 2 weeks of discontinuation. […] There was no meaningful difference in results as a function of age, gender, site, or smoking status. With regard to efficacy endpoints, the following tables present efficacy used in the ITT (Intent-to-Treat) and PP (Per Protocol) populations unless otherwise specific. The primary inference was based upon Week 16 visit using the ITT population. Change from baseline was obtained by subtracting the baseline values from the individual on-treatment values. Change from Week 16 was obtained by subtracting the Week 16 values from the individual follow-up visit (Week 18/19) values. If either the baseline or Week 16 or on-treatment or follow-up value was missing, the change from baseline or Week 16 value was also set to missing. […]

Setting [1] is: ITT, Double Blind Week 18 LOCF (Follow-up), change from Week 16.
Setting [2] is: PP, Double Blind Week 16 LOCF (change from Week 8).
Where [3] appears, read: PP, Double Blind Week 18 LOCF (Follow-up), change from Week 16.

Each structure is given as a SMILES string.

For the molecule `CNC1(C)C2CCC(C2)C1(C)C` (stereo in doubt) [TC-5214, (S)—N,2,3,3-tetramethylnorbornan-2-amine], for the setting “ITT and PP populations, result in words”, the “CGI-SI score change from baseline compared with placebo” value is “statistically significant decreases (improvements)”. For the same molecule, the “CGI-SI Mean Difference between TC-5214 and Placebo” value by setting is: (ITT, Double Blind Week 16 LOCF (change from Week 8)) 0.87; under setting [1], 0.01; under setting [2], 0.92; under setting [3], 0.05. In addition, the “CGI-SI Adjusted Mean change” value is −0.05 under setting [1], −2.00 under setting [2] and −0.07 under setting [3]. Further, the “CGI-SI Difference vs Placebo + CIT” value (ITT, Week 8 to Week 16 LOCF) is reported as −0.87. Also, where the note is “ITT, change from Week 8 (double-blind baseline) to Week 16 LOCF, add-on to citalopram”, the “CGI-SI Adj. Mean change” value is recorded as −1.79.
